Tests used:
[1] = biological target: T1, type II 5-alpha-reductase (Homo sapiens, UniProt P31213); conditions: Moore et al. 1995; cited from earlier work
T1 sequence (P31213 1-254): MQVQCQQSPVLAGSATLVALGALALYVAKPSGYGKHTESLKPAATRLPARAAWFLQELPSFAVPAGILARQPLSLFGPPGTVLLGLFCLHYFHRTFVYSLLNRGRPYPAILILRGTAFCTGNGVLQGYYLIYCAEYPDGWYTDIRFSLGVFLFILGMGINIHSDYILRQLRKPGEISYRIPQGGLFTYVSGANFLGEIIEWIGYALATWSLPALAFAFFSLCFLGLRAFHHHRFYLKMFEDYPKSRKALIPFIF

MMP-2 = experiment: Zymography for metalloproteinases in medium of PPS-treated cells (MMP-2); type: cell-based, human; conditions: PPS 100 μg/μl daily for 5 days; densitometry
Method: (§1) Cells in medium containing 20% FBS were pipetted into 6-well plates and were left undisturbed for 24 hours. On day 0, fresh medium containing 20% serum, with and without PPS ([…]), was added PPS was added daily for 5 days. At day 4, the serum in the medium was reduced to 0.1% FBS so as to avoid interference with the assays. At the time of collection, the cellular supernatants were centrifuged to remove cellular debris. Cell layers from the same wells were used to determine cell number.
(§2) Briefly, medium was diluted with 0.1% FBS and 5× Laemmli buffer so that all samples corresponded to an identical cell number. Gelatinases (MMP-9 and MMP-2) in the medium were assayed using 10% zymogram gels (Novex, San Diego, Calif.). Following electrophoresis, the gels were washed for 1 hour in 2.5% SDS and incubated overnight in collagenase as described previously (Boyle et al., Urology 48: 398-405, 1996). The gels were stained with Coomassie Blue and air-dried. To check for non-specific bands, gels were incubated in 50 mM Tris buffer, with the addition of 25 mM EDTA. Quantitative densitometry was performed using NIH image 1.6. […] However MMP-9 increased 235.7+/−50.31 as compared to control cells (see FIG. 3) (p<001).

type I collagen = experiment: Collagen analysis, type I collagen immunoassay; type: cell-based, human; conditions: PPS-treated vs untreated cells
Method: (§3) Another set of cells was plated as described in Example 2 and either treated with PPS or left untreated. The supernatant was centrifuged to remove cellular debris and transferred to a tube containing protease inhibitors (PMSF, NEM, EDTA) and frozen prior to assay.
Type I collagen: 100 μl of medium or human collagen type I standard were incubated for 24 hours in a 96 well plate (Nunc). After 3 washes with 0.05% Tween/PBS, the wells were blocked with 1% BSA/PBS for an additional 24 hours. Following 4 washes with 0.05% Tween/PBS, 50 μl of human collagen type I antibody (1:1000) (Biodesiga, Kennebunk, Me.) was applied for 90 minutes. The plate was washed again and biotin-labeled goat anti-rabbit IgG (1:1000, Sigma) was applied for 1 hour. The wells were washed 4 more times and incubated with streptavidin […] (SAAP) at a 1:2500 concentration. P-nitrophenyl phosphate (pNPP, Sigma) was used for color development according to the manufacturer's directions. The plate was read in a Titertek Mulitskan plate reader at 405 nm.
(§4) Type I and type IV (Biodesign) collagen standards were diluted to a final concentration of 0.25-4 ng/well in 0.02 N acetic acid. The curves were linear (r=0.98).

human prostate cells = experiment: Dose response / growth curves of prostatic smooth muscle cells in 20% FBS, cell counts by Coulter counter; type: cell-based
Method: Fragments from the nodular areas of prostatectomy specimens were obtained, cut into small pieces, and incubated in a collagenase solution (3 mg/ml) (Sigma Chemical Co., St. Louis, Mo.) overnight at 37° C. The following day, the digested fragments were resuspended in complete Waymouth's medium (Gibco) containing 20% fetal bovine serum (FBS), L-glutamine, penicillin (100 U/ml), streptomycin (100 μg/ml), and sodium bicarbonate. The digested fragments were then plated into 24-well plates (Nunc Nalge International, Naperville, Ill.) coated with human fibronectin (Collaborative Research). The fragments were left undisturbed in 95% […] and 5% CO2 until the first outgrowth was apparent (by day 7), at which time the cells appeared elongated and stellate and formed parallel arrays. The medium was changed twice a week until the cells reached confluence, at which time the cells were transferred into flasks. All experiments were performed on cells between passage 2 and 10, at which time the cells appeared to have a stable phenotype (i.e., monolayer growth with no morphological change and no hillock formation at confluence). Characterization was performed by staining for a smooth muscle cell actin (Sigma Chemical Co.) and F actin (Molecular Probes) in accordance with manufacturers' directions. All of the cells contained end to end actin filaments when stained with phalloidin. Such staining is characteristic of mesenchymal cells. Since the majority of the cells contained smooth muscle actin (see FIG. 1), the cells were considered to be smooth muscle cells
Dose response curves for the cells were generated by plating cells at 5,000 cells/well in 24-well plates (Nunc) in medium containing 20% FBS. After 36 hours, the medium was replaced with fresh 20% FBS containing medium and increasing concentrations of PPS (Elmiron®, Ivax Corp., Miami Fla.) were added. Cells were counted on days 1, 3 and 4 with a Coulter 7.1 cell counter (Coulter, Hialeah, Fla.). The addition of FBS stimulated cell proliferation. […] Cell number decreased 24 hours following treatment with PPS (10 or 100 μg/ml) (see FIG. 2). […]

type IV collagen = experiment: Collagen analysis, type IV collagen immunoassay; type: cell-based, human; conditions: PPS-treated vs untreated cells
Method: as §3
Type IV collagen: The Assay was performed in a similar way, except the medium and standards were coated on the plate for 8 hours prior to blocking. The concentration of the antibody and the biotinylated goat anti-rabbit IgG was 1:2000. The SAAP was used at 1:1500.
as §4

TIMP-2 = experiment: Reverse zymography for tissue inhibitors of metalloproteinases (TIMP-2); type: cell-based, human; conditions: PPS-treated cells; barely detectable in the control medium
Method: (§5) Tissue inhibitors of metalloproteinases (TIMPS) in the supernatant and the cell layer were assessed by reverse zymography. Briefly, gels were prepared containing gelatinase A. Medium was diluted to normalize for cell number as described in Example 2. Gels were washed for 1 hour in 2.5% SDS following electrophoresis and incubated overnight at 37° C. Coomasie Blue staining and air drying was performed as described in Example 2. Densitometry was performed using NIH image 1.6 to quantitate the TIMPS activity.

TIMP-1 = experiment: Reverse zymography for tissue inhibitors of metalloproteinases (TIMP-1); type: cell-based, human; conditions: PPS-treated cells; densitometry
Method: as §5

MMP-9 = experiment: Zymography for metalloproteinases in medium of PPS-treated cells (MMP-9); type: cell-based, human; conditions: PPS 100 μg/μl daily for 5 days; densitometry
Method: as §1, §2

[2] = patients treated for IC; Sand et al. 1997; cited from earlier work

| Compound | Decrease in DHT [1] [%] | Prostate specific antigen [1] | Prostate volume reductions [1] [%] | MMP-2 levels, PPS-treated cells vs control cells (MMP-2) | Type I collagen level relative to untreated control (type I collagen; cell layer) | Type I collagen level relative to untreated control (type I collagen; medium) | Cell number (human prostate cells; 24 hours following treatment with PPS (10 or 100 μg/ml), 20% FBS) | Cell death, as assessed by trypan blue staining (human prostate cells; PPS 10 or 100 μg/ml) | Decrease in cell number (human prostate cells; day 4 of treatment with 100 μg/ml PPS) [fold] | Type IV collagen level (type IV collagen; cell layer) | Type IV collagen level (type IV collagen; medium) | TIMP-2 expression in the medium (TIMP-2) | TIMP-1 levels increase as compared to control cells (TIMP-1) | MMP-9 increase as compared to control cells (MMP-9) | Serious adverse effects (mainly gastrointestinal or alopecia) [2] |
| --- | --- | --- | --- | --- | --- | --- | --- | --- | --- | --- | --- | --- | --- | --- | --- |
| CC(C)(C)NC(=O)[C@H]1CC[C@H]2[C@@H]3CC[C@H]4NC(=O)C=C[C@]4(C)[C@H]3CC[C@]12C [finasteride] | 72 | reduction | 30 |  |  |  |  |  |  |  |  |  |  |  |  |
| pentosan polysulfate [PPS] |  |  |  | no significant differences | 66.91%+/−25.42 % of controls | 29.97%+/−3.692 % of controls | decreased | not associated with cell death | 3 | 52.99%+/−7.556 % of controls | 43.03%+/−4.029 % of controls | expressed at high levels | 203.5+/−50.31% of untreated control c | 235.7+/−50.31% of untreated control c | 3.2 % of chronic users |

Reference: US6828309B2, “Use of pentosan polysulfate to treat certain conditions of the prostate” (The United States of America as represented by the …, priority 2000, dated 2004)
